According to patent EP4582426A1, “PAN-KRAS INHIBITOR COMPOUND” (Adlai Nortye Biopharma Co., Ltd., priority 2022, dated 2024):

Key:
AsPC-1 (G12D) = test: In vitro cell proliferation inhibition test (CellTiter-Glo Luminescent Cell Viability Assay); format: cell-based; details: AsPC-1 cell line, Pancreas, KRAS (p.G12D), cells and compounds co-incubated 72 hours
How it was run: (§1)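 Cells were seeded at 1000-5000/well and cultured overnight, then exposed to compound (top final 10 µM, ten 3-fold dilutions) for 72 h at 37°C, 5% CO2. Viability was read by CellTiter-Glo luminescence; IC50 was obtained from four-parameter fits of normalized signal.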

SW480 (G12V) = test: as above; format: cell-based; details: SW480 cell line, Large intestine, Colon, KRAS (p.G12V), cells and compounds co-incubated 72 hours
How it was run: as §1

## CCn1c(-c2cc(C#CCN3CCN(C)CC3)cnc2[C@H](C)OC)c2c3cc(ccc31)-c1csc(n1)C[C@H](NC(=O)[C@H]1[C@H](C)[C@@H]1C)C(=O)N1CCC[C@H](N1)C(=O)OCC(C)(C)C2 [Example 52, (1r,2R,3S)-N-((6^3S,4S,Z)-1^1-ethyl-1^2-(2-((S)-1-methoxyethyl)-5-(3-(4-methylpiperazin-1-yl)prop-1-yn-1-yl)pyridin-3-yl)-10,10-dimethyl-5,7-dioxo-6^1,6^2,6^3,6^4,6^5,6^6-hexahydro-1^1H-8-oxa-2(4,2)-thiazola-1(5,3)-indola-6(1,3)-pyridazinacycloundecaphane-4-yl)-2,3-dimethylcyclopropane-1-carboxamide]
AsPC-1 (G12D)
  IC50: 0.24 nM
SW480 (G12V)
  IC50: 0.3 nM

## CCn1c(-c2cc(C#Cc3cnc4c(c3)CN(C)C4)cnc2[C@H](C)OC)c2c3cc(ccc31)-c1csc(n1)C[C@H](NC(=O)[C@H]1C[C@@H]1C)C(=O)N1CCC[C@H](N1)C(=O)OCC(C)(C)C2 [Example 46, (1S,2S)-N-((6^3S,4S,Z)-1^1-ethyl-1^2-(2-((S)-1-methoxyethyl)-5-((6-methyl-6,7-dihydro-5H-pyrrolo[3,4-b]pyridin-3-yl)ethynyl)pyridin-3-yl)-10,10-dimethyl-5,7-dioxo-6^1,6^2,6^3,6^4,6^5,6^6-hexahydro-1^1H-8-oxa-2(4,2)-thiazola-1(5,3)-indola-6(1,3)-pyridazinacycloundecaphane-4-yl)-2-methylcyclopropane-1-carboxamide]
AsPC-1 (G12D)
  IC50: 19.5 nM
SW480 (G12V)
  IC50: 11.4 nM

## CCn1c(-c2cc(C#CCN3CCC(F)C3)cnc2C(C)OC)c2c3cc(ccc31)-c1csc(n1)CC(NC(=O)C1C(C)C1C)C(=O)N1CCCC(N1)C(=O)OCC(C)(C)C2 (single isomer, unassigned) [Example 21]
AsPC-1 (G12D)
  IC50: 0.82 nM
SW480 (G12V)
  IC50: 1.1 nM

## (1r,2R,3S)-N-((6^3S,4S,Z)-1^1-ethyl-1^2-(5-(3-((S)-hexahydropyrazino[2,1-c][1,4]oxazin-8(1H)-yl)prop-1-yn-1-yl)-2-((S)-1-methoxyethyl)pyridin-3-yl)-10,10-dimethyl-5,7-dioxo-6^1,6^2,6^3,6^4,6^5,6^6-hexahydro-1^1H-8-oxa-2(4,2)-thiazola-1(5,3)-indola-6(1,3)-pyridazinacycloundecaphane-4-yl)-2,3-dimethylcyclopropane-1-carboxamide [Example 40]
AsPC-1 (G12D)
  IC50: 1.35 nM
SW480 (G12V)
  IC50: 1.5 nM

## CCn1c(-c2cc(C#CCN3CCOCC3)cnc2[C@H](C)OC)c2c3cc(ccc31)-c1csc(n1)C[C@H](NC(=O)C1CC1)C(=O)N1CCC[C@H](N1)C(=O)OCC(C)(C)C2 [Example 54, N-((6^3S,4S,Z)-1^1-ethyl-1^2-(2-((S)-1-methoxyethyl)-5-(3-morpholinoprop-1-yn-1-yl)pyridin-3-yl)-10,10-dimethyl-5,7-dioxo-6^1,6^2,6^3,6^4,6^5,6^6-hexahydro-1^1H-8-oxa-2(4,2)-thiazola-1(5,3)-indola-6(1,3)-pyridazinacycloundecaphane-4-yl)cyclopropanecarboxamide]
AsPC-1 (G12D)
  IC50: 17.3 nM
SW480 (G12V)
  IC50: 35 nM

## (1S,2S)-N-((6^3S,4S,Z)-1^2-(5-(3-(1,1-dioxidothiomorpholino)prop-1-yn-1-yl)-2-((S)-1-methoxyethyl)pyridin-3-yl)-1^1-ethyl-10,10-dimethyl-5,7-dioxo-6^1,6^2,6^3,6^4,6^5,6^6-hexahydro-1^1H-8-oxa-2(4,2)-thiazola-1(5,3)-indola-6(1,3)-pyridazinacycloundecaphane-4-yl)-2-methylcyclopropane-1-carboxamide [Example 43]
AsPC-1 (G12D)
  IC50: 0.42 nM
SW480 (G12V)
  IC50: 0.68 nM

## CCn1c(-c2cc(C#C[C@@H]3CCN(C)C3)cnc2[C@H](C)OC)c2c3cc(ccc31)-c1csc(n1)C[C@H](NC(=O)C1[C@@H](C)[C@H]1C)C(=O)N1CCC[C@H](N1)C(=O)OCC(C)(C)C2 (stereo partly drawn) [Example 14]
AsPC-1 (G12D)
  IC50: < 0.1 nM
AsPC-1 (G12D); listed as 14'
  IC50: 57.1 nM
SW480 (G12V)
  IC50: 0.2 nM

## (1S,2S)-N-((63S,4S,Z)-1^1-ethyl-1^2-(2-((S)-1-methoxyethyl)-5-((1-methylpiperidin-4-yl)ethynyl)pyridin-3-yl)-10,10-dimethyl-5,7-dioxo-6^1,6^2,6^3,6^4,6^5,6^6-hexahydro-1^1H-8-oxa-2(4,2)-thiazola-1(5,3)-indola-6(1,3)-pyridazinacycloundecaphane-4-yl)-2-methylcyclopropane-1-carboxamide [Example 29]
AsPC-1 (G12D)
  IC50: 1.2 nM
SW480 (G12V)
  IC50: 2.8 nM

## (1r,2R,3S)-N-((6^3S,4S,Z)-12-(5-(3-((S)-3-(ethoxymethyl)morpholino)prop-1-yn-1-yl)-2-((S)-1-methoxyethyl)pyridin-3-yl)-1^1-ethyl-10,10-dimethyl-5,7-dioxo-6^1,6^2,6^3,6^4,6^5,6^6-hexahydro-1^1H-8-oxa-2(4,2)-thiazola-1(5,3)-indola-6(1,3)-pyridazinacycloundecaphane-4-yl)-2,3-dimethylcyclopropane-1-carboxamide [Example 37]
AsPC-1 (G12D)
  IC50: 1.01 nM
SW480 (G12V)
  IC50: 0.68 nM

## CCn1c(-c2cc(C#CCN3CCOCC3)cnc2C(C)OC)c2c3cc(ccc31)-c1csc(n1)CC(NC(=O)C1CC1F)C(=O)N1CCCC(N1)C(=O)OCC(C)(C)C2 (single isomer, unassigned) [Example 24]
AsPC-1 (G12D)
  IC50: 24.2 nM
SW480 (G12V)
  IC50: 58.4 nM

## (1r,2R,3S)-N-((6^3S,4S,Z)-1^1-ethyl-1^2-(5-(3-((R)-3-(hydroxymethyl)morpholino)prop-1-yn-1-yl)-2-((S)-1-methoxyethyl)pyridin-3-yl)-10,10-dimethyl-5,7-dioxo-6^1,6^2,6^3,6^4,6^5,6^6-hexahydro-1^1H-8-oxa-2(4,2)-thiazola-1(5,3)-indola-6(1,3)-pyridazinacycloundecaphane-4-yl)-2,3-dimethylcyclopropane-1-carboxamide [Example 38]
AsPC-1 (G12D)
  IC50: 0.07 nM
SW480 (G12V)
  IC50: 0.18 nM

## CCn1c(-c2cc(C#Cc3cccc4c3CN(C)C4)cnc2[C@H](C)OC)c2c3cc(ccc31)-c1csc(n1)C[C@H](NC(=O)[C@H]1C[C@@H]1C)C(=O)N1CCC[C@H](N1)C(=O)OCC(C)(C)C2 (single isomer, unassigned) [Example 30]
AsPC-1 (G12D)
  IC50: 8.2 nM
SW480 (G12V)
  IC50: 84.2 nM

## CCn1c(-c2cc(C#CCN3CCO[C@@H](C)C3)cnc2[C@H](C)OC)c2c3cc(ccc31)-c1csc(n1)C[C@H](NC(=O)[C@H]1C[C@@H]1C)C(=O)N1CCC[C@H](N1)C(=O)OCC(C)(C)C2 (single isomer, unassigned) [Example 4]
AsPC-1 (G12D)
  IC50: 4.9 nM
AsPC-1 (G12D); listed as 4'
  IC50: 523 nM
SW480 (G12V)
  IC50: 2.9 nM
SW480 (G12V); listed as 4'
  IC50: 813 nM

## CCNc1cccc(C#Cc2cnc([C@H](C)OC)c(-c3c4c5cc(ccc5n3CC)-c3csc(n3)C[C@H](NC(=O)[C@H]3C[C@@H]3C)C(=O)N3CCC[C@H](N3)C(=O)OCC(C)(C)C4)c2)n1 (single isomer, unassigned) [Example 31]
AsPC-1 (G12D)
  IC50: 78 nM
SW480 (G12V)
  IC50: 100 nM

## CCn1c(-c2cc(C#CCN3CCC4(CC3)CN(C)C4)cnc2[C@H](C)OC)c2c3cc(ccc31)-c1csc(n1)C[C@H](NC(=O)[C@H]1C[C@@H]1C)C(=O)N1CCC[C@H](N1)C(=O)OCC(C)(C)C2 [Example 50, (1S,2S)-N-((6^3S,4S,Z)-1^1-ethyl-1^2-(2-((S)-1-methoxyethyl)-5-(3-(2-methyl-2,7-diazaspiro[3.5]nonan-7-yl)prop-1-yn-1-yl)pyridin-3-yl)-10,10-dimethyl-5,7-dioxo-6^1,6^2,6^3,6^4,6^5,6^6-hexahydro-1^1H-8-oxa-2(4,2)-thiazola-1(5,3)-indola-6(1,3)-pyridazinacycloundecaphane-4-yl)-2-methylcyclopropane-1-carboxamide]
AsPC-1 (G12D)
  IC50: 1.2 nM
SW480 (G12V)
  IC50: 15.2 nM
